Measurements published in US9090900B2, “Coryneform bacterium transformant and process for producing phenol using the same” (priority 2010, dated 2015).
Read-outs that look alike come from different tables or passages of the source.

Assays:
[1] = test system: Escherichia coli JM109; conditions: LB liquid medium, 37° C.
Description: (§1) A growth inhibition test in aerobic culture was performed to examine the influence of phenol on Corynebacterium glutamicum, Escherichia coli, and Pseudomonas putida. Pseudomonas putida S12, which was used for the test, is reported to be a solvent-resistant strain. In the report, disclosed is an unparalleled technology using the strain as a host in phenol production.
Escherichia coli JM109 was applied to LB agar medium (1% polypeptone, 0.5% yeast extract, 0.5% NaCl and 1.5% agar) and was left stand in the dark at 37° C. for 15 hours.
An inoculation loop of the Escherichia coli JM109 grown on a plate as above was inoculated into a test tube containing 10 mL of LB liquid medium (1% polypeptone, 0.5% yeast extract, and 0.5% NaCl), and aerobic culture was performed with shaking at 37° C. for 13 hours.
(§2) The Escherichia coli JM109 grown in the above conditions was inoculated into 100 mL of LB liquid medium in such a way that the initial bacterial cell concentration would be OD610=0.05, phenol was added at the same time in such a way that the final concentration would be 0, 0.16, or 0.20 mM, and aerobic culture was performed with shaking at 37° C. The growth of bacterial cells was determined by absorbance measurement at OD610.
(§3) The growth of bacterial cells was determined by absorbance measurement at OD610.

[2] = test system: Pseudomonas putida F1; conditions: LB (+glucose) liquid medium, 30° C.
Description: as §1
(§4) Pseudomonas putida F1 and S12 were applied to LB agar medium (1% polypeptone, 0.5% yeast extract, 0.5% NaCl and 1.5% agar) and were left stand in the dark at 30° C. for 15 hours.
(§5) An inoculation loop of each of the Pseudomonas putida F1 and S12 grown on a plate as above was inoculated into a test tube containing 10 mL of LB (+glucose) liquid medium (1% polypeptone, 0.5% yeast extract, 0.5% NaCl and 0.4% glucose), and aerobic culture was performed with shaking at 30° C. for 13 hours.
(§6) The Pseudomonas putida F1 and S12 grown in the above conditions were each inoculated into 100 mL of LB (+glucose) liquid medium in such a way that the initial bacterial cell concentration would be OD610=0.05, phenol was added at the same time in such a way that the final concentration would be 0, 0.10, or 0.20 […], and aerobic culture was performed with shaking at 30° C.
as §3

[3] = test system: Pseudomonas putida S12; conditions: LB (+glucose) liquid medium, 30° C.
Description: as §1, §4, §5, §6, §3

[4] = test system: Corynebacterium glutamicum R; conditions: A liquid medium, 33° C.
Description: as §1
Corynebacterium glutamicum R was applied to A agar medium (2 g of (NH2)2CO3 7 g of (NH4)2SO4, 0.5 g of KH2PO4, 0.5 g of K2HPO4, 0.5 g of MgSO4.7H2O, 1 mL of 0.06% (w/v) Fe2SO4.7H2O+0.042% (w/v) MnSO4.2H2O, 1 mL of 0.02% (w/v) biotin solution, 2 mL of 0.01% (w/v) thiamin solution, 2 g of yeast extract, 7 g of vitamin assay casamino acid, 40 g of glucose, and 15 g of agar were suspended in 1 L of distilled water) and was left stand in the dark at 33° C. for 15 hours.
An inoculation loop of the Corynebacterium glutamicum R grown on a plate as above was inoculated into a test tube containing 10 mL of A liquid medium (2 g of (NH2)2CO3 7 g of (NH4)2SO4, 0.5 g of KH2PO4, 0.5 g of K2HPO4, 0.5 g of MgSO4.7H2O, 1 mL of 0.06% (w/v) Fe2SO4.7H2O+0.042% (w/v) MnSO4.2H2O, 1 mL of 0.02% (w/v) biotin solution, 2 mL of 0.01% (w/v) thiamin solution, 2 g of yeast extract, 7 g of vitamin assay casamino acid, and 40 g of glucose were suspended in 1 L of distilled water) and was aerobically cultured with shaking at 33° C. for 13 hours.
as §2, with “Corynebacterium glutamicum R” for “Escherichia coli JM109”, “A” for “LB”, “0.16, 0.2, 0.24,” for “0.16,”, “0.32” for “0.20”, “33°” for “37°”
as §3

## Oc1ccccc1 [phenol]
[1]; 0.16% phenol
  influence of phenol on aerobic proliferation (OD610): significantly affected
[1]; 0.20% phenol
  influence of phenol on aerobic proliferation (OD610): completely inhibited
[2]; 0.10% phenol
  influence of phenol on aerobic proliferation (OD610): significantly affected
[2]; 0.20% phenol
  influence of phenol on aerobic proliferation (OD610): completely inhibited
[3]; 0.10% phenol
  influence of phenol on aerobic proliferation (OD610): significantly affected
[3]; 0.20% phenol
  influence of phenol on aerobic proliferation (OD610): completely inhibited
[4]; 0.16% phenol
  influence of phenol on aerobic proliferation (OD610): hardly affected
[4]; 0.20% phenol
  influence of phenol on aerobic proliferation (OD610): favorable growth
[4]; 0.24% phenol
  influence of phenol on aerobic proliferation (OD610): able to proliferate
